Laboratory results: patent US12427183B2, “Methods of treating cancer, infectious disease, and autoimmune disease using chemokines” (New York Society for the Relief of the Ruptured and …, priority 2016, dated 2025)
Entries after “also recorded” stand apart in the source; their conditions may differ.

Legend:
healthy monocytes = experiment: Cytokines in healthy monocytes with CXCL4; assay type: cell-based, human
pDCs of HDs = experiment: TLR gene expression in purified pDCs from HDs cultured with cytokines or chemokines (qPCR); assay type: cell-based, human; details: 10 μg/ml each, 24 hours, pDCs from HDs
Protocol: (§1) PBMCs were prepared using Ficoll-Paque density gradient from fresh blood under internal Institutional Review Board-approved protocols. pDCs were isolated as previously described (Guiducci et al. 2008) using either using negative depletion (Miltenyi Biotech) or following cell sorting using a BD IFNLUX cell sorter. As part of the gating strategy, neutrophils were excluded by FSC/SSC and cells positive for CD14 (CD3 and CD19 as well) were first excluded in order to prevent the contamination by TLR8 positive cells and then positively gated on HLA-DR, CD123 and BDCA4 to purify the pDCs. All BDCA4+ cells also express BDCA2 (results not shown). As a result, pure pDCs were obtained and no markers for neutrophils (CD66) or myeloid cells were found by PCR. B cells were FACS sorted as CD19+ and monocytes as CD14+ cells. PBMCs were depleted of pDCs using BDCA4 beads from Miltenyi. pDCs were cultured at 10,000-30,000 cells per well in a 96-round bottom plate and incubated at 37° C., 5% CO2 and 95% humidity. After 24 hours of culture, the supernatant was collected for ELISA or Mutiplex cytokine assays. In some culture conditions, cells were cultured with the PI3Kδ inhibitor, CAL-101 (Selleck chemicals) for 24 hours. The RNA-based TLR8 agonist, ORN8-L previously described (Guidacci et al. 2013) was synthetized by Chemgenes Corporation. For the TLR8 activation assay, pDCs were incubated in complete media alone, 200 μg/ml ORN8-L in complete media or 200 μg/ml ORN8-L+ 10 μg/ml CXCL4 (R&D systems).
PCR reactions were performed as described previously with 10 ng of cDNA (Barrat et al. 2005). In brief, RNA was extracted from cells using the Qiagen RNeasy Mini Kit. Quantity of RNA was measured by Nanodrop and high-capacity cDNA Reverse Transcription kit was used to generate 20-50 ng cDNA. Gene expression levels were calculated based on relative threshold cycle (Ct) values. This was done using the formula Relative Ct=100×1.8 (HSK-GENE), where HSK is the mean CT of duplicate housekeeping gene runs (we used Ubiquitin), GENE is the mean CT of duplicate runs of the gene of interest, and 100 is arbitrarily chosen as a factor to bring all values above 0.
In particular, CXCL4 or IP-10 (two CXCR3B agonists) (10 μg/ml each) had no impact on TLR8 nor TLR7 and TLR9 expression levels in pDCs (FIG. 2C).

[1] = tested on: TLR9-mediated activation of human B cells; experiment: TLR9-mediated activation of human B cells (CpG with or without chemokines); assay type: cell-based
Protocol: as §1
IL-6, TNF, and IL-10 gene levels were measured at 6 hours post culture using PCR. The secretion of cytokines/chemokines in the supernatants was quantified using Luminex. CD83, CD80, CD86 and CD69 expression was measured by flow cytometry at 24 hour post culture.
Human B cells were purified and cultured for 6 hours or 24 hours either with medium only, with CpG-C (at 0.15 μM) alone or with a combination of CpG-C and CXCL4 (at 10 μg/ml). IL-6 gene levels was measured at 6 hour post culture by PCR and CD83, CD80, CD86 and CD69 expression was measured by flow cytometry at 24 hour post culture.
Purified B cells from HDs were cultured in media alone (control), with either a CpG TLR9 agonist (0.15 μM) or with CpG and either CXCL4, CXCL10, CXCL9, CXCL4, CXCL7 or CXCL12 (all at 10 μg/ml). IL-6 was quantified in the supernatants by ELISA.
Purified B cells from HDs were cultured in media alone (control), with either a CpG TLR9 agonist (0.25 μM) or with CpG and CXCL4 or CXCL10 (10 μg/ml) alone or in the presence of the CXCR3 inhibitor AMG487 at 0, 0.1, 1 or 10 μM for 6 hours or 24 hours. IL-6 was quantified by ELISA at 24 hours and IL-6 and TNF gene expression levels were quantified by q-PCR at 6 hours and CD83, CD80, CD86 and CD69 expression was measured by flow cytometry at 24 hours post culture.

[2] = tested on: TLR7-mediated activation of human B cells; experiment: TLR7-mediated activation of human B cells (R848 with or without CXCL4); assay type: cell-based; details: R848 0.15 μM + CXCL4 10 μg/ml
Protocol: IL-6 and TNF gene levels were measured at 6 hour post culture by PCR, secretion of IL-6 and TNF were quantified using luminex and CD83 and CD80 expression was measured by flow cytometry at 24 hour post culture.

[3] = tested on: purified pDCs from HDs or SSc patients; experiment: IFN production by purified pDCs cultured with chemokine alone; assay type: cell-based, human; set-up: IFN production, CXCL4 alone: dose or concentration left out as unconfirmed
Protocol: as §1
Supernatant from pDCs 24 hour culture was used for quantification of secreted chemokines and cytokines and measured with the use of an enzyme-linked immunosorbent assay (ELISA) or Luminex multiplex-beads immunoassay. CXCL4 ELISA (Ray Biotech) and IFNα, IP-10, IL-6, TNF Luminex assay (Millipore) was performed according to the manufacturer's protocol. Due to the variability in the number of cells obtained from the different patients and so we could compare the values across donors, all results were normalized to 10,000 cells. Of note, for all donors, pDCs were plated between 10,000-30,000 cells.
When purified pDCs from HDs or SSc patients were cultured with CXCL4 alone ([…]), there was no effect on IFN production.
5×10^5 PBMCs or pDC-depleted PBMCs were cultured in 96 wells plate and stimulated with 0.25 μM CpG DNA with or without 10 μg/ml CXCL4, CXCL10, CXCL12 or CCL5. Freshly isolated pDCs were resuspended at 5×10^4 cells/100 μl RPMI 1640 medium (Gibco) and stimulated with the 0.25 μM CpG with/without 10 μg/ml indicated chemokines. The supernatant was harvested after 18 h and IFN-α was measured by ELISA.

[4] = tested on: TLR9-mediated activation of pDCs; experiment: TLR9-mediated activation of purified pDCs (CpG with or without chemokines), IFN-α ELISA; assay type: cell-based, human
[5] = CpG-B 0.15 μM + CXCL4 10 μg/ml, 6 hours

CXCL4: small chemokine of the CXC family, 70-amino acid protein released from alpha-granules of activated platelets
IFN-inducible IP-10 in healthy monocytes (healthy monocytes): reduces
IL-6 in healthy monocytes (healthy monocytes): increases
TNF in healthy monocytes (healthy monocytes): increases
TLR8, TLR7 and TLR9 expression levels in pDCs (pDCs of HDs): no impact
effect of inhibition of CXCR3 on the chemokine's inhibition of TLR9 in B cells ([1]; CXCR3 inhibitor AMG487 0.1, 1 or 10 μM, CpG 0.25 μM, chemokine 10 μg/ml, 6 or 24 hours): no effect
activation of B cells via TLR9 as shown by the production of IL-6 ([1]; CpG 0.15 μM, chemokine 10 μg/ml, ELISA): inhibited
expression of IL-6 in B cells (PCR and protein) [1, 5]: negatively regulated
expression of IL-10 in B cells (PCR and protein) [1, 5]: negatively regulated
expression of TNF in B cells (PCR and protein) [1, 5]: negatively regulated
TLR9 activation of B cells (IL-6 gene; CD83, CD80, CD86, CD69) ([1]; CpG-C 0.15 μM + CXCL4 10 μg/ml, 6 or 24 hours): negatively regulated
gene expression or secretion of IL-6 when activated by TLR7 [2]: little effect
gene expression or secretion of TNF when activated by TLR7 [2]: little effect
IFN-α secretion by pDCs, chemokine used alone ([3]; chemokine 10 μg/ml without CpG, results not shown): no effect
IFN production, CXCL4 alone ([3]; purified pDCs from HDs or SSc patients, CXCL4 alone): no effect; also recorded: did not induce
TLR9 response (IFN-α) of pDCs ([4]; CXCL4 10 μg/ml, CpG-C 0.1 μM or CpG-B 0.25 μM, suboptimal doses, similar in HDs and SSc patients): drastically impacted
TLR9-induced response (IFN-α secretion) by pDCs ([4]; CpG 0.25 μM, chemokine 10 μg/ml (Example 17)): superinduce
dependence of IFN-α superinduction on chemokine receptors ([4]; with AMG487 100 nM, AMD3100 10 μg/ml, anti-CXCR7 11G8 10 μg/ml, J113863 1.5 μM or Vicriviroc 0.1 μM): independent of their chemokine receptors
